Consider 5 compounds from patent publication US10570184B2, “GLP-1/glucagon receptor co-agonists for medical use” (Novo Nordisk A/S, priority 2014, dated 2020).

Starred links: 1 amine or outer side, 2 acyl side, 3 side chain; linkers in the order of their positions; H or OH if unused. Non-standard residues stand in square brackets, D forms with d. Residues, ends and D or L forms follow the SMILES beside them. Groups on a side chain read outwards from the residue. *: point of attachment. C18 diacid = O=C(O)CCCCCCCCCCCCCCCCC(=O)*; γGlu = O=C(O)[C@H](CCC(=O)[*:2])N[*:1]; Ac4c = NC1(C(=O)O)CCC1; AEEA = NCCOCCOCC(=O)O; Aib = CC(C)(N)C(=O)O

T1 sequence (P43220 24-463): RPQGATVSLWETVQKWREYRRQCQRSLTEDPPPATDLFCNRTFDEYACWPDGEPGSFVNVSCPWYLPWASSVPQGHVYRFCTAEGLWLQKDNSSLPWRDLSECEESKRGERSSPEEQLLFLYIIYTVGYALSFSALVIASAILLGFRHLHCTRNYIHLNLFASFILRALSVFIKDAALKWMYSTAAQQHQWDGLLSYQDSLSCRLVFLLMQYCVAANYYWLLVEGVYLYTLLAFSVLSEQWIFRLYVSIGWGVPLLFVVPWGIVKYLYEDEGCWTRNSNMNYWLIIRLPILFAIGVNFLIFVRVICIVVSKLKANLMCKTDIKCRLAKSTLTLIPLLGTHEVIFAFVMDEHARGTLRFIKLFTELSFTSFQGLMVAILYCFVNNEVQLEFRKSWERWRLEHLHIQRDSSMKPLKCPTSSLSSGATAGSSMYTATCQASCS

This experiment addresses T1, human GLP-1 receptor (Homo sapiens, UniProt P43220).
T1 construct: expressed in transfected cells; host or cells: membranes of BHK cells (parent BHKTS13), clone FCW467-12A
The experiment is described as follows: Assay (II)(a) GLP-1 receptor binding, 125I-GLP-1 displacement SPA on BHK membranes. Conditions: without presence of serum albumin; read-out: GLP-1R IC50 (nM) [Assay (II)(a)]. In a few lines: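 Membranes from BHK cells (clone FCW467-12A) stably expressing human GLP-1R were incubated with serially diluted compounds (8×10EE-13 to 8×10EE-7 M before addition) and [125I]-GLP-1-(7-36)NH2 with WGA SPA beads, 2 h at 30° C, pH 7.4. IC50 taken from displacement by non-linear regression. Run at ≤0.001% or 2.0% final serum albumin.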
The IC50 is the concentration that inhibits the measured activity by half. Regarding `CC[C@H](C)[C@H](NC(=O)[C@H](CC(C)C)NC(=O)[C@H](Cc1c[nH]c2ccccc12)NC(=O)[C@H](CCC(N)=O)NC(=O)[C@@H](NC(=O)[C@H](Cc1ccccc1)NC(=O)[C@H](CCC(=O)O)NC(=O)[C@H](CCCNC(=N)N)NC(=O)[C@H](C)NC(=O)[C@H](CCCNC(=N)N)NC(=O)[C@H](CCCNC(=N)N)NC(=O)[C@H](CO)NC(=O)[C@H](CCC(=O)O)NC(=O)[C@H](CC(C)C)NC(=O)[C@H](Cc1ccc(O)cc1)NC(=O)[C@H](CCCNC(=N)N)NC(=O)[C@H](CO)NC(=O)[C@H](CC(C)C)NC(=O)[C@H](CC(=O)O)NC(=O)[C@H](CO)NC(=O)[C@@H](NC(=O)[C@H](Cc1ccccc1)NC(=O)[C@@H](NC(=O)CNC(=O)[C@H](CCC(N)=O)NC(=O)C1(NC(=O)[C@@H](N)Cc2c[nH]cn2)CCC1)[C@@H](C)O)[C@@H](C)O)C(C)C)C(=O)N[C@@H](CCCCNC(=O)CC[C@H](NC(=O)CC[C@H](NC(=O)COCCOCCNC(=O)COCCOCCNC(=O)CC[C@H](NC(=O)CC[C@H](NC(=O)CCCCCCCCCCCCCCCCC(=O)O)C(=O)O)C(=O)O)C(=O)O)C(=O)O)C(=O)N[C@H](C(N)=O)[C@@H](C)O` [Chem. 17, N^ε28-[(4S)-4-carboxy-4-[[(4S)-4-carboxy-4-[[2-[2 [2-[[2-[2-[2-[[(4S)-4-carboxy-4-[[(4S)-4-carboxy-4-(17-carboxyheptadecanoylamino)butanoyl]amino]butanoyl]amino]ethoxy]ethoxy]acetyl]amino]ethoxy]ethoxy]acetyl]amino]butanoyl]amino]butanoyl]-[Acb2,Leu10,Arg12,Glu15,Arg20,Glu21,Ile27,Lys28]-Glucagon amide] (H-H[Ac4c]QGTFTSDLSRYLESRRAREFVQWLIK([γGlu-γGlu-AEEA-AEEA-γGlu-γGlu-C18 diacid])T-NH2), the IC50 was found to be 0.1 nM.
`CC[C@H](C)[C@H](NC(=O)[C@H](CC(C)C)NC(=O)[C@H](Cc1c[nH]c2ccccc12)NC(=O)[C@H](CCC(N)=O)NC(=O)[C@@H](NC(=O)[C@H](Cc1ccccc1)NC(=O)[C@H](CCC(=O)O)NC(=O)[C@H](CCCNC(=N)N)NC(=O)[C@H](C)NC(=O)[C@H](CCCNC(=N)N)NC(=O)[C@H](CCCNC(=N)N)NC(=O)[C@H](CO)NC(=O)[C@H](CCC(=O)O)NC(=O)[C@H](CC(C)C)NC(=O)[C@H](Cc1ccc(O)cc1)NC(=O)[C@H](CCCCN)NC(=O)[C@H](CO)NC(=O)[C@H](CC(C)C)NC(=O)[C@H](CC(=O)O)NC(=O)[C@H](CO)NC(=O)[C@@H](NC(=O)[C@H](Cc1ccccc1)NC(=O)[C@@H](NC(=O)CNC(=O)[C@H](CCC(N)=O)NC(=O)C1(NC(=O)[C@@H](N)Cc2c[nH]cn2)CCC1)[C@@H](C)O)[C@@H](C)O)C(C)C)C(=O)N[C@@H](CCCCNC(=O)COCCOCCNC(=O)COCCOCCNC(=O)CC[C@H](NC(=O)CC[C@H](NC(=O)CCCCCCCCCCCCCCCCC(=O)O)C(=O)O)C(=O)O)C(=O)N[C@H](C(N)=O)[C@@H](C)O` [Chem. 18, N^ε28-[2-[2-[2-[[2-[2-[2-[[(4S)-4-carboxy-4-[[(4S)-4-carboxy-4-(17-carboxyheptadecanoylamino)butanoyl]amino]butanoyl]amino]ethoxy]ethoxy]acetyl]amino]ethoxy]ethoxy]acetyl]-[Acb2,Leu10,Glu15,Arg20,Glu21,Ile27,Lys28]-Glucagon amide] (H-H[Ac4c]QGTFTSDLSKYLESRRAREFVQWLIK([AEEA-AEEA-γGlu-γGlu-C18 diacid])T-NH2): the IC50 was 0.1 nM.
With `CC[C@H](C)[C@H](NC(=O)[C@H](CC(C)C)NC(=O)[C@H](Cc1c[nH]c2ccccc12)NC(=O)[C@H](CCC(N)=O)NC(=O)[C@@H](NC(=O)[C@H](Cc1ccccc1)NC(=O)[C@H](CC(=O)O)NC(=O)[C@H](CCCNC(=N)N)NC(=O)[C@H](C)NC(=O)[C@H](CCCNC(=N)N)NC(=O)[C@H](CCCNC(=N)N)NC(=O)[C@H](C)NC(=O)[C@H](CC(=O)O)NC(=O)[C@H](CC(C)C)NC(=O)[C@H](Cc1ccc(O)cc1)NC(=O)[C@H](CCCCN)NC(=O)[C@H](CO)NC(=O)[C@H](CC(C)C)NC(=O)[C@H](CC(=O)O)NC(=O)[C@H](CO)NC(=O)[C@@H](NC(=O)[C@H](Cc1ccccc1)NC(=O)[C@@H](NC(=O)CNC(=O)[C@H](CCC(N)=O)NC(=O)C(C)(C)NC(=O)[C@@H](N)Cc1c[nH]cn1)[C@@H](C)O)[C@@H](C)O)C(C)C)C(=O)N[C@@H](CC(N)=O)C(=O)N[C@@H](CCCCNC(=O)CC[C@H](NC(=O)CC[C@H](NC(=O)COCCOCCNC(=O)COCCOCCNC(=O)CC[C@H](NC(=O)CCCCCCCCCCCCCCCCC(=O)O)C(=O)O)C(=O)O)C(=O)O)C(N)=O` [Chem. 20, N^ε29-[(4S)-4-carboxy-4-[[(4S)-4-carboxy-4-[[2-[2-[2-[[2-[2-[2-[[(4S)-4-carboxy-4-(17-carboxyheptadecanoylamino)butanoyl]amino]ethoxy]ethoxy]acetyl]amino]ethoxy]ethoxy]acetyl]amino]butanoyl]amino]butanoyl]-[Aib2,Leu10,Ala16,Arg20,Ile27,Lys29]-Glucagon amide] (H-H[Aib]QGTFTSDLSKYLDARRARDFVQWLINK([γGlu-γGlu-AEEA-AEEA-γGlu-C18 diacid])-NH2; N-terminus assumed), the IC50 was determined as 0.1 nM.
Next, `CC[C@H](C)[C@H](NC(=O)[C@H](CC(C)C)NC(=O)[C@H](Cc1c[nH]c2ccccc12)NC(=O)[C@H](CCC(N)=O)NC(=O)[C@@H](NC(=O)[C@H](Cc1ccccc1)NC(=O)[C@H](CCC(=O)O)NC(=O)[C@H](CCCNC(=N)N)NC(=O)[C@H](C)NC(=O)[C@H](CCCNC(=N)N)NC(=O)[C@H](CCCNC(=N)N)NC(=O)[C@H](C)NC(=O)[C@H](CC(=O)O)NC(=O)[C@H](CC(C)C)NC(=O)[C@H](Cc1ccc(O)cc1)NC(=O)[C@H](CCCCN)NC(=O)[C@H](CO)NC(=O)[C@H](CC(C)C)NC(=O)[C@H](CC(=O)O)NC(=O)[C@H](CO)NC(=O)[C@@H](NC(=O)[C@H](Cc1ccccc1)NC(=O)[C@@H](NC(=O)CNC(=O)[C@H](CCC(N)=O)NC(=O)C(C)(C)NC(=O)[C@@H](N)Cc1c[nH]cn1)[C@@H](C)O)[C@@H](C)O)C(C)C)C(=O)N[C@@H](CC(N)=O)C(=O)N[C@@H](CCCCNC(=O)CC[C@H](NC(=O)CC[C@H](NC(=O)COCCOCCNC(=O)COCCOCCNC(=O)CC[C@H](NC(=O)CCCCCCCCCCCCCCCCC(=O)O)C(=O)O)C(=O)O)C(=O)O)C(N)=O` [Chem. 21, N^ε29-[(4S)-4-carboxy-4-[[(4S)-4-carboxy-4-[[2-[2-[2-[[2-[2-[2-[[(4S)-4-carboxy-4-(17-carboxyheptadecanoylamino)butanoyl]amino]ethoxy]ethoxy]acetyl]amino]ethoxy]ethoxy]acetyl]amino]butanoyl]amino]butanoyl]-[Aib2,Leu10,Ala16,Arg20,Glu21,Ile27,Lys29]-Glucagon amide] (H-H[Aib]QGTFTSDLSKYLDARRAREFVQWLINK([γGlu-γGlu-AEEA-AEEA-γGlu-C18 diacid])-NH2; N-terminus assumed): 0.1 nM; `CC[C@H](C)[C@H](NC(=O)[C@H](CC(C)C)NC(=O)[C@H](Cc1c[nH]c2ccccc12)NC(=O)[C@H](C)NC(=O)[C@@H](NC(=O)[C@H](Cc1ccccc1)NC(=O)[C@H](CC(=O)O)NC(=O)[C@H](CCCNC(=N)N)NC(=O)[C@H](C)NC(=O)[C@H](CCCNC(=N)N)NC(=O)[C@H](CCCNC(=N)N)NC(=O)[C@H](CC(C)C)NC(=O)[C@H](CC(=O)O)NC(=O)[C@H](CC(C)C)NC(=O)[C@H](Cc1ccc(O)cc1)NC(=O)[C@H](CCCCN)NC(=O)[C@H](CO)NC(=O)[C@H](CC(C)C)NC(=O)[C@H](CC(=O)O)NC(=O)[C@H](CO)NC(=O)[C@@H](NC(=O)[C@H](Cc1ccccc1)NC(=O)[C@@H](NC(=O)CNC(=O)[C@H](CCC(N)=O)NC(=O)C(C)(C)NC(=O)[C@@H](N)Cc1c[nH]cn1)[C@@H](C)O)[C@@H](C)O)C(C)C)C(=O)N[C@@H](CC(N)=O)C(=O)N[C@@H](CCCCNC(=O)CC[C@H](NC(=O)CC[C@H](NC(=O)COCCOCCNC(=O)COCCOCCNC(=O)CC[C@H](NC(=O)CCCCCCCCCCCCCCCCC(=O)O)C(=O)O)C(=O)O)C(=O)O)C(N)=O` [Chem. 24, N^ε29-[(4S)-4-carboxy-4-[[(4S)-4-carboxy-4-[[2-[2-[2-[[2-[2-[2-[[(4S)-4-carboxy-4-(17-carboxyheptadecanoylamino)butanoyl]amino]ethoxy]ethoxy]acetyl]amino]ethoxy]ethoxy]acetyl]amino]butanoyl]amino]butanoyl]-[Aib2,Leu10,Leu16,Arg20,Ala24,Ile27,Lys29]-Glucagon amide] (H-H[Aib]QGTFTSDLSKYLDLRRARDFVAWLINK([γGlu-γGlu-AEEA-AEEA-γGlu-C18 diacid])-NH2; N-terminus assumed): 0.4 nM.
